From article PMC8924334, “Synthesis of [^11C]carbonyl-labeled cyclohexyl (5-(2-acetamidobenzo[d]thiazol-6-yl)-2-methylpyridin-3-yl)carbamate ([^11C-carbonyl]PK68) as a potential PET tracer for receptor-interacting protein 1 kinase” (EJNMMI Radiopharmacy and Chemistry, 2022)

What was measured:
RIPK1 = target: T1, RIPK1 (Mus musculus, UniProt Q60855); assay: Small-animal PET imaging, baseline and blocking with unlabeled PK68; format: in vivo, mice
T1 construct: RIPK1 in liver of healthy mouse would exist with nonnegligible level; from tissue; host or cells: living healthy mice; volumes of interest on heart, lung, liver, kidney, small intestine, muscle and brain
T1 sequence (Q60855 1-656): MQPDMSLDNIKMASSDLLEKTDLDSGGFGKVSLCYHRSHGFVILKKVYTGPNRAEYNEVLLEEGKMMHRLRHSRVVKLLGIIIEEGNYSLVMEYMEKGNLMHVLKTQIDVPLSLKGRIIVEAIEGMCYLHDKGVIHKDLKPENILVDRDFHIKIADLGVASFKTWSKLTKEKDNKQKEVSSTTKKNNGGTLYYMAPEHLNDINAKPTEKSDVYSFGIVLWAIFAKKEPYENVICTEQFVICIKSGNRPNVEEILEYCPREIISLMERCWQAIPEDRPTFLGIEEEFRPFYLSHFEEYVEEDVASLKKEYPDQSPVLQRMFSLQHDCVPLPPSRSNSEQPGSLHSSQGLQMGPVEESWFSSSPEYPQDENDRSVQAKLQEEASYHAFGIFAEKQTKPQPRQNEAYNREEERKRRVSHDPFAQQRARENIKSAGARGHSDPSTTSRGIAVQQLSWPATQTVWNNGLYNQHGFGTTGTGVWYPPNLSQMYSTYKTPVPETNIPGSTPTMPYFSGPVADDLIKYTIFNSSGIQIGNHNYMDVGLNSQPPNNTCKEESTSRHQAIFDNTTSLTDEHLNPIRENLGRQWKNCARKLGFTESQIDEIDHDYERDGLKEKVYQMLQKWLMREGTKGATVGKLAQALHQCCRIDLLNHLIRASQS
Method: Each mouse was anesthetized using 1.5% (v/v) isoflurane, and an intravenous catheter was inserted into its tail vein. The mice (10–14 weeks old, 48.1 ± 7.4 g) were subsequently maintained under anesthesia and secured in a custom-designed chamber placed in the center of a small-animal PET scanner (Inveon, Siemens Healthineers, Erlangen, Germany). After adjusting the target position for scanning, dynamic emission scans (in three-dimensional list mode) were performed for 60 min (1 min × 4 frames, 2 min × 8 frames, and 5 min × 8 frames). [^11C]PK68 (11–16 MBq) was injected via a tail vein catheter. The body temperature of each mouse was maintained at 37 °C using a heated (40 °C) water circulation system (T/Pump TP401, Gaymar Industries, NY, USA) during the PET scan. For the blocking study, the mice were pretreated with unlabeled PK68 (1 mg/kg) just before the injection of [^11C]PK68. The obtained dynamic PET images (0.6 mm slice thickness) were reconstructed by filtered-back projection using a Hanning filter, with a Nyquist cutoff of 0.5 cycles per pixel. The time–activity curves (TACs) of [^11C]PK68 were acquired using PMOD software (version 3.4, PMOD Technology, Zurich, Switzerland) from the volumes of interest, which were manually mapped onto the heart, lung, liver, kidney, small-intestine (part of duodenum), muscle, and brain. The radioactivity was decay-corrected to the injection time and is expressed as a standardized uptake value (SUV), normalized for injected radioactivity and body weight. The SUV was calculated according to the following formula: SUV = (radioactivity per milliliter tissue/injected radioactivity) × body weight (g). We also calculated the area under the curve (AUC) using TACs from 0 to 60 min.

[1] = Ex vivo biodistribution study; format: in vivo, mice; settings: mean ± SD, n = 3
Method: Each mouse (8 weeks old, 37.9 ± 1.0 g) was injected with a bolus of [^11C]PK68 (2.7 MBq, 0.1 mL) via its tail vein. Three mice were sacrificed by cervical dislocation at each experimental time-point (1, 5, 15, 30, and 60 min) after the injection. The blood (heart contents), heart wall, lung, liver, pancreas, spleen, kidneys, adrenals, stomach (including contents), small intestine (including contents), large intestines (including contents), testes, muscles, and whole brain were removed quickly and weighed. The radioactivity in these tissues was measured with an autogamma scintillation counter (2480 Wizard^2) and expressed as %ID/g. All radioactivity measurements were corrected for decay.

[2] = blocking with unlabeled PK68 1 mg/kg i.v.

peak radioactivity in kidney (RIPK1; baseline): 2.7 SUV
peak radioactivity in liver (RIPK1; baseline): 4.8 SUV
uptake of radioactivity by the brain (RIPK1; baseline mice, PET, i.v.): < 0.3 SUV
time of peak radioactivity in kidney (RIPK1; baseline, after injection): 1.5 min
time of peak radioactivity in liver (RIPK1; baseline, after injection): 2.5 min
peak radioactivity in kidneys (RIPK1; [2]): 2.3 SUV
peak radioactivity in liver (RIPK1; [2]): 4.2 SUV
specific binding for RIPK1 in PET imaging (RIPK1; healthy mice): no obvious specific binding
difference in AUC (0-60 min) in liver and kidney, baseline vs blocking (RIPK1; n = 2 per group): no significant differences
reduction of maximum SUV in liver and kidney by blocking (RIPK1; unlabeled PK68 1 mg/kg i.v.): roughly 15%
radioactivity in adrenals ([1]; 1 min after injection): 6.2 ± 2.7 %ID/g
radioactivity in blood ([1]; 1 min after injection): 2.4 ± 0.3 %ID/g
radioactivity in brain ([1]; 1 min after injection): 0.6 ± 0.0 %ID/g
radioactivity in heart ([1]; 1 min after injection): 7.6 ± 0.3 %ID/g
radioactivity in large intestine (including contents) ([1]; 1 min after injection): 0.7 ± 0.1 %ID/g
radioactivity in liver ([1]; 1 min after injection): 8.0 ± 0.8 %ID/g
radioactivity in lung ([1]; 1 min after injection): 5.2 ± 0.2 %ID/g
radioactivity in muscle ([1]; 1 min after injection): 1.9 ± 0.3 %ID/g
radioactivity in pancreas ([1]; 1 min after injection): 3.4 ± 0.2 %ID/g
radioactivity in small intestine (including contents) ([1]; 1 min after injection): 1.8 ± 0.1 %ID/g
radioactivity in spleen ([1]; 1 min after injection): 1.5 ± 0.2 %ID/g
radioactivity in stomach (including contents) ([1]; 1 min after injection): 1.2 ± 0.2 %ID/g
radioactivity in testis ([1]; 1 min after injection): 0.3 ± 0.1 %ID/g
radioactivity in adrenals ([1]; 5 min after injection): 4.0 ± 0.5 %ID/g
radioactivity in blood ([1]; 5 min after injection): 1.3 ± 0.2 %ID/g
radioactivity in brain ([1]; 5 min after injection): 0.4 ± 0.0 %ID/g
radioactivity in heart ([1]; 5 min after injection): 2.8 ± 0.3 %ID/g
radioactivity in kidney ([1]; 5 min after injection): 9.9 ± 0.4 %ID/g
radioactivity in large intestine (including contents) ([1]; 5 min after injection): 0.9 ± 0.1 %ID/g
radioactivity in liver ([1]; 5 min after injection): 17.2 ± 0.7 %ID/g
radioactivity in lung ([1]; 5 min after injection): 2.6 ± 0.2 %ID/g
radioactivity in muscle ([1]; 5 min after injection): 1.1 ± 0.1 %ID/g
radioactivity in pancreas ([1]; 5 min after injection): 2.7 ± 0.3 %ID/g
radioactivity in small intestine (including contents) ([1]; 5 min after injection): 3.3 ± 0.1 %ID/g
radioactivity in spleen ([1]; 5 min after injection): 1.6 ± 0.1 %ID/g
radioactivity in stomach (including contents) ([1]; 5 min after injection): 2.0 ± 0.1 %ID/g
radioactivity in testis ([1]; 5 min after injection): 0.3 ± 0.0 %ID/g
radioactivity in adrenals ([1]; 15 min after injection): 3.3 ± 0.5 %ID/g
radioactivity in blood ([1]; 15 min after injection): 1.1 ± 0.1 %ID/g
radioactivity in brain ([1]; 15 min after injection): 0.3 ± 0.0 %ID/g
radioactivity in heart ([1]; 15 min after injection): 2.1 ± 0.3 %ID/g
radioactivity in kidney ([1]; 15 min after injection): 7.7 ± 1.0 %ID/g
radioactivity in large intestine (including contents) ([1]; 15 min after injection): 1.4 ± 0.3 %ID/g
radioactivity in liver ([1]; 15 min after injection): 15.6 ± 0.8 %ID/g
radioactivity in lung ([1]; 15 min after injection): 2.1 ± 0.3 %ID/g
radioactivity in muscle ([1]; 15 min after injection): 0.8 ± 0.1 %ID/g
radioactivity in pancreas ([1]; 15 min after injection): 2.1 ± 0.3 %ID/g
radioactivity in small intestine (including contents) ([1]; 15 min after injection): 9.8 ± 3.1 %ID/g
radioactivity in spleen ([1]; 15 min after injection): 1.4 ± 0.2 %ID/g
radioactivity in stomach (including contents) ([1]; 15 min after injection): 4.0 ± 1.2 %ID/g
radioactivity in testis ([1]; 15 min after injection): 0.3 ± 0.0 %ID/g
radioactivity in adrenals ([1]; 30 min after injection): 2.1 ± 0.8 %ID/g
radioactivity in blood ([1]; 30 min after injection): 0.8 ± 0.1 %ID/g
radioactivity in brain ([1]; 30 min after injection): 0.2 ± 0.0 %ID/g
radioactivity in heart ([1]; 30 min after injection): 1.3 ± 0.1 %ID/g
radioactivity in kidney ([1]; 30 min after injection): 6.2 ± 0.6 %ID/g
radioactivity in large intestine (including contents) ([1]; 30 min after injection): 1.7 ± 0.4 %ID/g
radioactivity in liver ([1]; 30 min after injection): 10.7 ± 0.3 %ID/g
radioactivity in lung ([1]; 30 min after injection): 1.5 ± 0.2 %ID/g
radioactivity in muscle ([1]; 30 min after injection): 0.6 ± 0.1 %ID/g
radioactivity in pancreas ([1]; 30 min after injection): 1.4 ± 0.1 %ID/g
radioactivity in small intestine (including contents) ([1]; 30 min after injection): 16.7 ± 1.4 %ID/g
radioactivity in spleen ([1]; 30 min after injection): 0.9 ± 0.0 %ID/g
radioactivity in stomach (including contents) ([1]; 30 min after injection): 4.7 ± 1.0 %ID/g
radioactivity in testis ([1]; 30 min after injection): 0.3 ± 0.0 %ID/g
radioactivity in adrenals ([1]; 60 min after injection): 1.2 ± 0.1 %ID/g
radioactivity in blood ([1]; 60 min after injection): 0.5 ± 0.1 %ID/g
radioactivity in brain ([1]; 60 min after injection): 0.1 ± 0.0 %ID/g
radioactivity in heart ([1]; 60 min after injection): 0.7 ± 0.1 %ID/g
radioactivity in kidney ([1]; 60 min after injection): 3.2 ± 0.1 %ID/g
radioactivity in large intestine (including contents) ([1]; 60 min after injection): 2.6 ± 0.6 %ID/g
radioactivity in liver ([1]; 60 min after injection): 6.0 ± 0.2 %ID/g
radioactivity in lung ([1]; 60 min after injection): 0.8 ± 0.1 %ID/g
radioactivity in muscle ([1]; 60 min after injection): 0.3 ± 0.0 %ID/g
radioactivity in pancreas ([1]; 60 min after injection): 0.8 ± 0.1 %ID/g
radioactivity in small intestine (including contents) ([1]; 60 min after injection): 27.7 ± 3.0 %ID/g
radioactivity in spleen ([1]; 60 min after injection): 0.5 ± 0.1 %ID/g
radioactivity in stomach (including contents) ([1]; 60 min after injection): 7.2 ± 2.4 %ID/g
radioactivity in testis ([1]; 60 min after injection): 0.2 ± 0.0 %ID/g
SMILES: Cc1ncc(-c2ccc3nc(N[11C](C)=O)sc3c2)cc1NC(=O)OC1CCCCC1 [[^11C]PK68, Cyclohexyl (5-(2-[^11C-carbonyl]acetamidobenzo[d]thiazol-6-yl)-2-methylpyridin-3-yl)carbamate]
